Test results as given in patent US4935509A (priority 1989, dated 1990).
Read-outs that look alike come from different tables or passages of the source.

Experiments:
[1] = tested on: HT-29; experiment: MTT cell count (ID50), human colon cancer cell line HT-29; assay type: cell-based; conditions: HT-29, 144 h, read-out: ID50 HT-29
Procedure: (§1) In the various assays set forth below the colorimetric determination of the number of cells was carried out by the following procedure using MTT.
(§2) 3-(4,5-dimethylthiazol-2-yl)-2,5-dipenyl tetrazolium bromide (MTT) was prepared as a 5 mg/ml stock solution in phosphate buffered saline, filtered through a 0.22 μm filter and stored for up to two weeks at 4° C. while protected from light. For use in the assay it was diluted to 1 mg/ml in a pH 7.2 solution of phenol-red-free RPMI 1640 tissue culture medium supplemented with 1 mM sodium pyruvate and 50 μg/ml gentamycin. The assay was done in flat bottomed 96-well microtiter plates. Culture medium was removed from the wells by inverting and blotting the plate, fifty μl of MTT solution was added to the cells in each well, and each plate was incubated at 37° C. in an atmosphere of 5% CO2 in air. After incubation, each plate was centrifuged for 5 minutes at 8000×g and excess MTT removed by inverting and blotting. Fifty μl of 95% ethanol was added to each well and the plate was shaken (speed 6.5 for 15 minutes) to solubilize the formazan in each well. The optical density of each well was measured using an automatic plate reader with a test wavelength of 570 nm and a reference wavelength of 630 nm.
(§3) The in vitro effects of the novel compounds as compared to vinblastine and vincristine on three human colon cancer cell lines and one non-transformedhuman cell line were determined by the following procedure.
(§4) The non-transformed human fibroblast cell line, WI-38 and two of the human colon cancer cell lines, COLO-320-DM and HT-29, were obtained from the American Type Culture Collection, Rockville, MD and the third human colon cancer cell line, OM-1, was supplied by E. I. du Pont de Nemours and Co., Inc., Glenholden, PA. Both OM-1 and COLO-320-DM cells were maintained by serial passage in RPMI 1640 tissue culture medium supplemented to 10% (v/v) with heat-inactivated FBS. HT-29 cells were similarly maintained in McCoys 5A tissue culture medium supplemented with 10% heat-inactivated FBS. COLO-320-DM cells were detached by gentle scraping while HT-29 and OM-1 cells were detached using 0.25% trypsin and 0.05% trypsin, 0.5 mM EDTA solutions respectively. All cultures were incubated at 37° C. in a humidified environment of 5% CO2 in air. Experiments were conducted in 96-well flat-bottomed plates. The initial cell seeds per well for each cell line were 4,000 for WI- 38; 2,000 for COLO-320-DM; 750 for HT-29; and 3,000 for OM-1, each in the appropriate tissue culture medium. Cells were plated 24 hours before test compound was added to allow cells to recover from the effects of physical scraping and trypsinization. Varying log10 dilutions of drug were added to triplicate sets of wells and cultures were incubated for 6 days at 37° in a humidified atmosphere of 5% CO2 in air. The number of cells per well at the end of the experiment was determined colorimetrically by the reduction of MTT as described above and the results for each compounds shown in Table II. For purposes of comparison, the concentration of each test compound required to reduce the final cell number to one-half of the number in drug-free control cultures (ID50) is shown in Table II.

[2] = tested on: P388 wild-type cells; experiment: MTT cell count (ID50), P388 wild-type leukemia cells in vitro; assay type: cell-based, murine; conditions: Mus musculus, read-out: ID50 P388/Wild
Procedure: as §1, §2
(§5) The differential in vitro activity of the above compounds as compared to vincristine and vinblastine with regard to P388 wild-type and P388 multiple-drug resistant leukemia was carried out by the following procedure.
(§6) Tissue culture-adapted lines of the P388 wild-type and P388 multiple-drug resistant cells (principally resistant to adriamycin) were obtained from the American Type Culture Collection, Rockville, MD. Experiments were conducted in 96-well microtiter plates with 300 cells from either line seeded in a volume of 200 μl of tissue culture medium (RPMI 1640 supplemented to 10% (v/v) with heat-inactivated fetal bovine serum (FBS) and to […] with 1-glutamine). Cells and varying log^10 dilutions of test compound were added to triplicate sets of wells on the same day and cultures were incubated for 5 days at 37° C. in a humidified atmosphere of 5% CO2 in air. The number of cells per well at the end of the experiment was determined colorimetrically by the reduction of MTT as described above.

[3] = tested on: COLO-320-DM; experiment: MTT cell count (ID50), human colon cancer cell line COLO-320-DM; assay type: cell-based; conditions: 144 h, read-out: ID50 COLO-320
Procedure: as §1, §2, §3, §4

[4] = tested on: OM-1; experiment: MTT cell count (ID50), human colon cancer cell line OM-1; assay type: cell-based; conditions: 144 h, read-out: ID50 OM-1
Procedure: as §1, §2, §3, §4

[5] = tested on: WI-38 fibroblast; experiment: MTT cell count (ID50), non-transformed human fibroblast cell line WI-38; assay type: cell-based; design: unit not given here; conditions: 6 days incubation
Procedure: as §1, §2, §3, §4

[6] = tested on: P388 multiple-drug resistant cells; experiment: cells; assay type: cell-based, murine; conditions: for Fold-resistance: ID50 resistant cell line divided by ID50 wildtype cell line, 7200 min; for IC50: Mus musculus, read-out: ID50 P3/88/resist.
Procedure: as §1, §2, §5, §6

[7] = tested on: P388 leukemia; experiment: In vivo effect against P388 leukemia in mice (TD50, ED50, T.I.); conditions: for T.I. (therapeutic index): calculated from TD50 and ED50; for ED50: Mus musculus, P388, ip; for cured tumor-bearing mice at doses which were not toxic: P388 leukemia mice, non-toxic doses
Excerpt: (§7) The in vivo effect of the novel compounds of this invention against P388 leukemia as compared to vinblastine and vincristine, were compared by the following procedure.
(§8) P388 murine leukemia cells were obtained from Southern Research Institute, Birmingham, Ala., and were maintained by serial i.p. passage in C57BL/6 mice. Female (C57BL/6×DBA/2) F1 (BDF) mice of 6-8 weeks of age from Jackson Laboratories, Bar Harbor, Maine, received 1×10^6 P388 cells by i.p. inoculation on day 0. Compounds were dissolved in saline and administered i.p. to 10 tumor-bearing mice per dose level on days 0-4 and 7-9 using 5 to 10 log2 dilutions from a concentration known to be toxic. […] The therapeutic index (T.I.) for each compound was calculated by the formula: [formula]

[8] = as above; conditions: mouse, in vivo, ip
Excerpt: as §7, §8

[9] = tested on: P388 leukemia; experiment: Increase in mean survival time of mice bearing P388 leukemia; assay type: in vivo; conditions: i.p.; for Increase in MST: vs vehicle
Procedure: The efficacy of the remaining compounds is clearly documented by the fact that each increased the mean survival time of tumor-bearing mice in a dose-dependentmanner. […] The percent increase in mean survival time (MST) which appears in Table IV was calculated by the following formula: [formula]

[10] = 120 h, P388 wild-type, 5 days incubation, MTT
[11] = 120 h, P388 multiple-drug-resistant (principally adriamycin), 5 days incubation, MTT

SMILES | IC50 [1] | IC50 ([2]; P388, 120 h) | IC50 [3] | IC50 [4] | ID50 WI-38 fibroblast [5] | Fold-resistance [6] | IC50 ([6]; P388, 120 h) | T.I. (therapeutic index) [7] | LD50 [8] | ED50 [7] | cured tumor-bearing mice at doses which were not toxic [7] | IC50 ([1]; 6 days incubation, MTT) | IC50 [2, 10] | IC50 ([3]; 6 days incubation, MTT) | IC50 ([4]; 6 days incubation, MTT) | IC50 [6, 11] | further results
CC[C@]12C=CCN3CC[C@@]4(c5cc([C@@]6(C(=O)OC)C[C@H]7CN(CCc8c6[nH]c6ccccc86)C[C@@H]6CCCC[C@H]76)c(OC)cc5N(C)[C@H]4[C@@](O)(C(=O)OC)[C@@H]1OC(C)=O)[C@@H]32 [E, (4aR,8aS,9R,11S)-15-[1,2,4,4a,5,6,7,8,8a,9,10,11,12,17-tetradecahydro-11-(methoxycarbonyl)-indolo(2',3':6,7,)azonino(1,2,3-bc)isoquinolin-11-yl] vindoline] | 300 nM | 68 nM | 300 nM | 400 nM | 3 × 10^-7 | 6 | 430 nM | < 1 | 0.18 mg/kg | – | – | – | – | – | – | – | Mean Survival Time ([9]; 0.12 mg/kg (optimal dose), vehicle 9.6 days (A), 10.1 days (E)): 21.5 days; Increase in MST ([9]; 0.12 mg/kg (optimal dose)): 113%
CC[C@]12C=CCN3CC[C@@]4(c5cc([C@@]6(C(=O)OC)C[C@H]7CN(CCc8c6[nH]c6ccccc86)C[C@@H]6CCCC[C@H]76)c(OC)cc5N(C=O)[C@H]4[C@@](O)(C(=O)OC)[C@@H]1OC(C)=O)[C@@H]32 [Compound F, (4aR,8aS,9R,11S)-15-[1,2,4,4a,5,6,7,8,8a,9,10,11,12,17-tetradecahydro-11-(methoxycarbonyl)-indolo(2',3':6,7,)azonino(1,2,3-bc)isoquinolin-11-yl]N-demethyl-N-formylvindoline] | 30 nM | 38 nM | 400 nM | 20 nM | 1 × 10^-7 | 12 | 450 nM | 2.8 | 0.045 mg/kg | 0.016 mg/kg | 50% | – | – | – | – | – | –
CC[C@]1(O)C[C@H]2CN(CCc3c([nH]c4ccccc34)[C@@](C(=O)OC)(c3cc4c(cc3OC)N(C=O)[C@H]3[C@@](O)(C(=O)OC)[C@H](OC(C)=O)[C@]5(CC)C=CCN6CC[C@]43[C@@H]65)C2)C1 [Vincristine, reference compound] | – | – | – | – | 7 × 10^-8 | 57 | – | 5.9 | 1 mg/kg | 0.17 mg/kg | – | 30 nM | 7.2 nM | 400 nM | 50 nM | 410 nM | –
CC[C@]12C=CCN3CC[C@@]4(c5cc([C@@]6(C(=O)OC)C[C@H]7CN(CCc8c6[nH]c6ccccc86)Cc6ccccc67)c(OC)cc5N(C=O)[C@H]4[C@@](O)(C(=O)OC)[C@@H]1OC(C)=O)[C@@H]32 [Compound B, (9R,11S)-15-[1,2,4,9,10,11,12,17-octahydro-11-(methoxycarbonyl)-indolo(2',3':6,7)azonino(1,2,3-bc)isoquinolin-11-yl]N-demethyl-N-formylvindoline] | 20 nM | 47 nM | 300 nM | 60 nM | 1 × 10^-7 | 11 | 510 nM | 4.6 | 0.092 mg/kg | 0.02 mg/kg | 50% | – | – | – | – | – | –
CC[C@]12C=CCN3CC[C@@]4(c5cc([C@@]6(C(=O)OC)C[C@H]7CN(CCc8c6[nH]c6ccccc86)C[C@H]6CCCC[C@H]67)c(OC)cc5N(C=O)[C@H]4[C@@](O)(C(=O)OC)[C@@H]1OC(C)=O)[C@@H]32 [D, (4aS,8aR,9R,11S)-15-[1,2,4,4a,5,6,7,8,8a,9,10,11,12,17-tetradecahydro-11-(methoxycarbonyl)-indolo(2',3':6,7,)azonino(1,2,3-bc)isoquinolin-11-yl]N-demethyl-N-formylvindoline] | 40 nM | 55 nM | 400 nM | 60 nM | 4 × 10^-7 | 36 | 2000 nM | 1.1 | 0.045 mg/kg | – | – | – | – | – | – | – | ED50 ([7]; read-out: ED50 (extrapolated values)): 0.043 mg/kg; Mean Survival Time ([9]; 0.015 mg/kg (optimal dose), vehicle 10.7 days): 26.5 days; Increase in MST ([9]; 0.015 mg/kg (optimal dose)): 148%
CC[C@]1(O)C[C@@H]2CN(CCc3c([nH]c4ccccc34)[C@@](C(=O)OC)(c3cc4c(cc3OC)N(C)[C@H]3[C@@](O)(C(=O)OC)[C@H](OC(C)=O)[C@]5(CC)C=CCN6CC[C@]43[C@@H]65)C2)C1 [Vinblastine, reference compound] | – | – | – | – | 5 × 10^-8 | 16 | – | 1.9 | 0.79 mg/kg | 0.41 mg/kg | – | 30 nM | 19 nM | 50 nM | 50 nM | 310 nM | –
